Source: patent publication US20040235982A1, “Polymer emulsions resistant to biodeterioration” (priority 2003, published 2004)
Counter-ions that a name gives are not always drawn. Like-named read-outs stand apart in the source and are kept apart here.

What was measured:
[1] = test system: mixed bacterial inoculum; conditions: for preservative efficacy (in words) / potentiation of the cationic compounds (in words): AIRFLEX 192; for Inoculations Passed: AIRFLEX 192 VAE polymer; for potentiation of the cationic compounds (in words): other metal chelating agent with cationic compound
Description: The following procedure was used to assess the preservative efficacy of several cationic compounds in an anionic surfactant stabilized VAE copolymer emulsion containing less than 1000 ppm vinyl acetate monomer:
(§1) Aeromonas hydrophilia, Alcaligenes faecalis, Corynebacterium ammoniagenes, Enterobacter aerogenes, Escherichia coli, Klebsiella pneumoniae, Pseudomonas aeruginosa, Proteus vulgaris, Providencia rettgeri, Pseudomonas stutzeri, Shewanella putrefaciens, Serratia liquefaciens, Acinetobacter baumannii, Burkholderia cepacia, Chryseobacterium meningosepticum, Sphingobacterium spiritivorum, Ralstonia pickettii, and Gluconoacetobacter liquefaciens.
(§2) Each bacterial culture was individually grown on nutrient agar slants, except GABL was grown on potato dextrose agar slants, by inoculating the agar surfaces. The nutrient agar slants were incubated for 24-48 hours at 30° C. and the potato dextrose agar slants were incubated for 48-72 hours at 25° C. […] The washings from all of the slants were combined into one sterile, Erlenmeyer flask.
(§3) Rapid Automated Bacterial Impedance Technique (RABIT), supplied by Microbiology International, and manufactured by Don Whitley Scientific, Ltd. utilizes the principal of impedance microbiology to detect and assess microbial activity in a given sample. Using the RABIT, microbial metabolism is monitored by measuring the amount of carbon dioxide produced by actively respiring microorganisms. The electrodes in the RABIT test cells are partially covered with alkaline agar containing potassium hydroxide. As inoculated test samples are monitored on the RABIT, carbon dioxide produced from microbial metabolism is absorbed by the alkaline agar resulting in a change in conductivity. Conductivity is monitored with time and the time to reach a pre-specified rate of reduction in conductivity is termed the time to detection (TTD). Therefore, the shorter the TTD, the higher the number of microorganisms present. Failure can be defined as three successive decreases in conductivity equal to or greater than a pre-specified value (−10 microSiemens is recommended by the manufacturer) at any time during the 72 hour RABIT monitoring period. Alternatively, failure can be defined as a pre-specified total change in conductivity.
(§4) Samples (50 g each) of each test emulsion containing a test antimicrobial agent were inoculated with 1.0 mL of the mixed bacterial inoculum. After mixing well, the samples were then placed in a 30° C. incubator. After 1, 2, and 6 days of incubation, each sample was streak plated onto nutrient agar and potato dextrose agar to assess the level of surviving microorganisms. The nutrient agar plates were incubated at 30° C. for 48 hours before assessing the growth. […] On the seventh day of incubation, each test emulsion sample was inoculated again with a freshly prepared mixed bacterial inoculum, mixed well, then placed back into the incubator. The samples were again streak plated onto nutrient agar and potato dextrose agar after incubating for 1, 2, and 6 days since the second inoculation. On the fourteenth day after the test was initiated, the test emulsions were inoculated a third time with another freshly prepared mixed bacterial inoculum and then placed back into the incubator. The samples were again streak plated onto nutrient agar and potato dextrose agar after 1, 2, 6, and 13 days of incubation since the third inoculation to assess surviving microorganisms. Test failure is defined as a microbial viable count >300 CFU/10 μL observed from the nutrient agar or potato dextrose agar streak plate assessments.
(§5) A small amount of a microbial nutrient (typically yeast extract) was added to each emulsion test sample (50 g) containing a test antimicrobial agent. The resulting samples were then inoculated with 1.0 mL of the mixed bacterial inoculum. After mixing well, an aliquot (5 g) of each test sample was placed into separate RABIT indirect conductivity tubes.

[2] = test system: mixed bacterial inoculum; conditions: for preservative efficacy (in words) / potentiation of the cationic compounds (in words): AIRFLEX 410; for Inoculations Passed: AIRFLEX 410 VAE polymer; for potentiation of the cationic compounds (in words): other metal chelating agent with cationic compound
Description: as §1, §2, §3, §4
as §5, with “tubes. The indirect conductivity tubes were then placed into the RABIT incubator modules set at 30° C. and the conductivity changes monitored for up to 72 hours. The remainder of each test sample was stored in a 30° C. incubator during the RABIT monitoring period.” for “tubes.”

[3] = test system: yeasts and molds; test: Fungal biochallenge test in Airflex 410 VAE polymer emulsion; conditions: for Growth on PDA / Surface Fungal Growth: 200 ppm; for Growth on PDA: streak plate after 28 days incubation; for Surface Fungal Growth: visual after 28 days at 25° C.
[4] = cationic compound alone, dosage of 300 ppm or similar dosages
[5] = biocide dosage 300 ppm active ingredient
[6] = metal chelating agent by itself
[7] = biocide dosage 1000 ppm active ingredient

CCCCCCCCCC[N+](C)(C)CCCCCCCCCC.[Cl-] [BTC 1010, Didecyldimethylammonium chloride]
preservative efficacy (in words) [1, 4]: no preservative efficacy
Inoculations Passed [1, 5]: 0
preservative efficacy (in words) [2, 4]: no preservative efficacy
Inoculations Passed [2, 5]: 0
Growth on PDA [3]: Dense
Surface Fungal Growth [3]: Moderate Growth

CCCCCCCCCCCCCCCC[n+]1ccccc1 [CPC, cetylpyridinium chloride]
Inoculations Passed [1, 5]: 0
Inoculations Passed [2, 5]: 0

O=C(O)CC(O)(CC(=O)O)C(=O)O [Citric acid, sodium salt]
potentiation of the cationic compounds (in words) [1]: do not exhibit potentiation
Inoculations Passed [1, 5]: 0
potentiation of the cationic compounds (in words) [2]: do not exhibit potentiation

CCCCCCCCCCCCNC(=N)N.Cl [DGH, n-dodecylguanidine hydrochloride]
Inoculations Passed ([1]; biocide dosage 400 ppm active ingredient): 0
Inoculations Passed [2, 5]: 0

O=C([O-])CN(CCN(CC(=O)[O-])CC(=O)[O-])CC(=O)[O-].[Na+].[Na+].[Na+].[Na+] [EDTA salt, tetrasodium salt of ethylenediamine tetraacetic acid]
preservative efficacy (in words) [1, 6]: inadequate
Inoculations Passed [1, 7]: 0
preservative efficacy (in words) [2, 6]: inadequate
Inoculations Passed [2, 7]: 0
Growth on PDA [3]: Dense
Surface Fungal Growth [3]: Slight Growth
protection against the growth of yeasts and molds (in words) ([3]; used by itself): no protection

O=C(O)/C=C\C(=O)O [Maleic acid, sodium salt]
potentiation of the cationic compounds (in words) [1]: do not exhibit potentiation
Inoculations Passed [1, 5]: 0
potentiation of the cationic compounds (in words) [2]: do not exhibit potentiation

O=C([O-])c1ccccc1O.[Na+] [Salicylic acid, sodium salt]
Inoculations Passed [1, 5]: 0

O=P([O-])([O-])[O-].[Na+].[Na+].[Na+] [Trisodium phosphate]
Inoculations Passed [1, 5]: 0
